Where “and” joins values, the source holds several entries; their conditions need not be identical. Identical values can stand only once. Like-named read-outs stand apart in the source and are kept apart here.
Key:
[1] = healthy subjects
clinical [2] = conditions: male, human, plasma, oral, 120 mg
clinical [3] = conditions: human, in vivo, oral, spread in brackets; for AUC(0-inf): AUCinf
clinical [4] = conditions: human, oral, 560 mg
[5] = for DN*AUC0-24 / DN*AUClast / DN*Cmax / DN* AUC∞: dose normalized
[6] = 560 mg, Ibrutinib 560 mg alone, fasted, n=8
[7] = 560 mg, Ibrutinib 560 mg alone, fed, n=8
[8] = Ibrutinib 140 mg + grapefruit juice, fed, n=8
[9] = Ibrutinib in plasma, Day 1, 120 mg Ibrutinib alone, geom. mean
[10] = Ibrutinib in plasma, Day 1, 120 mg Ibrutinib alone, mean
[11] = Ibrutinib in plasma, Day 1, 120 mg Ibrutinib alone, median
[12] = Ibrutinib in plasma, Day 1, 120 mg Ibrutinib alone, n=12, geom. mean
[13] = Ibrutinib in plasma, Day 1, 120 mg Ibrutinib alone, n=12, mean
[14] = Ibrutinib in plasma, Day 1, 120 mg Ibrutinib alone, not dose normalized, mean
[15] = Ibrutinib in plasma, Day 7, 40 mg Ibrutinib + ketoconazole, geom. mean
[16] = Ibrutinib in plasma, Day 7, 40 mg Ibrutinib + ketoconazole, mean
[17] = Ibrutinib in plasma, Day 7, 40 mg Ibrutinib + ketoconazole, median
[18] = PCI-45227 in plasma, Day 1, 120 mg Ibrutinib alone, geom. mean
[19] = PCI-45227 in plasma, Day 1, 120 mg Ibrutinib alone, mean
[20] = PCI-45227 in plasma, Day 1, 120 mg Ibrutinib alone, median
[21] = PCI-45227 in plasma, Day 1, 120 mg Ibrutinib alone, not dose normalized, mean
[22] = PCI-45227 in plasma, Day 7, 40 mg Ibrutinib + ketoconazole, geom. mean
[23] = PCI-45227 in plasma, Day 7, 40 mg Ibrutinib + ketoconazole, mean
[24] = PCI-45227 in plasma, Day 7, 40 mg Ibrutinib + ketoconazole, median

SMILES: C=CC(=O)N1CCC[C@@H](n2nc(-c3ccc(Oc4ccccc4)cc3)c3c(N)ncnc32)C1 [Ibrutinib, 1-((R)-3-(4-amino-3-(4-phenoxyphenyl)-1H-pyrazolo[3,4-d]pyrimidin-1-yl)-piperidin-1-yl)prop-2-en-1-one]
- Ibrutinib systemic exposure when dosed concomitantly with rifampin [1]: significantly affected
- AUC(0-inf) (clinical [2]): 22.4 ng·h/mL
- MRT (clinical [2]): 9.13 h
- AUC(0-t) (clinical [3]; 560 mg, AUC0-24 h, Ibrutinib 560 mg alone, fasted, n=8): 229 ng·h/mL
- AUC(0-t) (clinical [3]; 560 mg, AUC0-24 h, Ibrutinib 560 mg alone, fed, n=7): 544 ng·h/mL
- AUC(0-inf) (clinical [3]; [6]): 368 ng·h/mL
- AUC(0-inf) (clinical [3]; [7]): 659 ng·h/mL
- AUC(0-t) (clinical [3]; 560 mg, AUClast, Ibrutinib 560 mg alone, fasted, n=8): 289 ng·h/mL
- AUC(0-t) (clinical [3]; 560 mg, AUClast, Ibrutinib 560 mg alone, fed, n=8): 606 ng·h/mL
- Cmax (clinical [3]; [6]): 245 ng/mL
- Cmax (clinical [3]; [7]): 128 ng/mL
- AUC(0-t) (clinical [3]; AUC0-24 h, Ibrutinib 140 mg + grapefruit juice, fed, n=7): 339 ng·h/mL
- AUC(0-inf) (clinical [3]; [8]): 334 ng·h/mL
- AUC(0-t) (clinical [3]; AUClast, Ibrutinib 140 mg + grapefruit juice, fed, n=8): 325 ng·h/mL
- Cmax (clinical [3]; [8]): 125 ng/mL
- AUC(0-t) (clinical [4]; blood): 259 ng·h/mL
- Cmax (clinical [4]; blood): 42 ng/mL
- AUC(0-inf) (clinical [4]; in vivo): 397 ng·h/mL
- DN*AUC0-24 [5, 9]: 18.7 ng·h/mL
- DN*AUClast [5, 9]: 20.4 ng·h/mL
- DN*Cmax [5, 9]: 3.33 ng/mL
- DN*AUC0-24 [5, 10]: 21.3 ng·h/mL
- DN*AUClast [5, 10]: 23.8 ng·h/mL
- DN*Cmax [5, 10]: 3.92 ng/mL
- DN*AUC0-24 [5, 11]: 18.5 ng·h/mL
- DN*AUClast [5, 11]: 19.2 ng·h/mL
- DN*Cmax [5, 11]: 3.57 ng/mL
- DN* AUC∞ [5, 12]: 23.7 ng·h/mL
- DN* AUC∞ [5, 13]: 28.1 ng·h/mL
- tlast [5, 9]: 30.93 h
- tlast [5, 10]: 34.00 h
- tlast [5, 11]: 24.01 h
- AUMC∞ [5, 12]: 576 h · h · ng/mL
- MRT [5, 12]: 8.11 h
- AUMC∞ [5, 13]: 857 h · h · ng/mL
- MRT [5, 13]: 8.93 h
- AUMC∞ ([5]; Ibrutinib in plasma, Day 1, 120 mg Ibrutinib alone, n=12, median): 693 h · h · ng/mL
- AUC0-24 [5, 14]: 63.8 ng·h/mL
- Cmax [5, 14]: 11.8 ng/mL
- AUC0-24 [5, 15]: 464 ng·h/mL
- AUClast [5, 15]: 488 ng·h/mL
- AUC∞ [5, 15]: 491 ng·h/mL
- AUMC∞ [5, 15]: 3235 h · h · ng/mL
- Cmax [5, 15]: 95.2 ng/mL
- MRT [5, 15]: 6.6 h
- tlast [5, 15]: 40.51 h
- AUC0-24 [5, 16]: 510 ng·h/mL
- AUClast [5, 16]: 533 ng·h/mL
- AUC∞ [5, 16]: 536 ng·h/mL
- AUMC∞ [5, 16]: 3504 h · h · ng/mL
- Cmax [5, 16]: 108 ng/mL
- MRT [5, 16]: 6.8 h
- tlast [5, 16]: 42.68 h
- AUClast [5, 17]: 559 ng·h/mL
- AUMC∞ [5, 17]: 3635 h · h · ng/mL
- tlast [5, 17]: 48.00 h
- Ibrutinib systemic exposure when dosed concomitantly with ketoconazole ([5]; healthy subjects): significantly affected

SMILES: Nc1ncnc2c1c(-c1ccc(Oc3ccccc3)cc1)nn2[C@@H]1CCCN(C(=O)C(O)CO)C1 (some centres unmarked) [PCI-45227]
- DN* AUC∞ [5, 18]: 98.2 ng·h/mL
- DN*AUC0-24 [5, 18]: 76.6 ng·h/mL
- DN*AUClast [5, 18]: 96.4 ng·h/mL
- DN*Cmax [5, 18]: 8.81 ng/mL
- DN* AUC∞ [5, 19]: 103 ng·h/mL
- DN*AUC0-24 [5, 19]: 82.2 ng·h/mL
- DN*AUClast [5, 19]: 101 ng·h/mL
- DN*Cmax [5, 19]: 9.70 ng/mL
- DN* AUC∞ [5, 20]: 101 ng·h/mL
- DN*AUC0-24 [5, 20]: 81.3 ng·h/mL
- DN*AUClast [5, 20]: 100 ng·h/mL
- DN*Cmax [5, 20]: 9.45 ng/mL
- AUMC∞ [5, 18]: 4122 h · h · ng/mL
- CL/F [5, 18]: 407 L/h
- MRT [5, 18]: 14.0 h
- T½ term [5, 18]: 11.2 h
- tlast [5, 18]: 65.80 h
- tmax [5, 18]: 2.25 h
- λz [5, 18]: 0.0619 h⁻¹
- AUMC∞ [5, 19]: 4297 h · h · ng/mL
- CL/F [5, 19]: 428 L/h
- MRT [5, 19]: 14.3 h
- T½ term [5, 19]: 11.41 h
- tlast [5, 19]: 66.7 h and 66.67 h
- tmax [5, 19]: 2.42 h
- λz [5, 19]: 0.0630 h⁻¹
- AUMC∞ [5, 20]: 3979 h · h · ng/mL
- CL/F [5, 20]: 395 L/h
- MRT [5, 20]: 13.6 h
- T½ term [5, 20]: 10.74 h
- tlast [5, 20]: 72.00 h
- tmax [5, 20]: 2.00 h
- λz [5, 20]: 0.0645 h⁻¹
- AUC0-24 [5, 21]: 247 ng·h/mL
- Cmax [5, 21]: 29.1 ng/mL
- AUC0-24 [5, 22]: 53.4 ng·h/mL
- AUClast [5, 22]: 82.7 ng·h/mL
- AUC∞ [5, 22]: 89.4 ng·h/mL
- AUMC∞ [5, 22]: 2216 h · h · ng/mL
- CL/F [5, 22]: 448 L/h
- Cmax [5, 22]: 3.63 ng/mL
- MRT [5, 22]: 24.8 h
- T½ term [5, 22]: 17.49 h
- tlast [5, 22]: 67.30 h
- tmax [5, 22]: 3.77 h
- λz [5, 22]: 0.0396 h⁻¹
- AUC0-24 [5, 23]: 54.5 ng·h/mL
- AUClast [5, 23]: 85.2 ng·h/mL
- AUC∞ [5, 23]: 92.2 ng·h/mL
- AUMC∞ [5, 23]: 2416 h · h · ng/mL
- CL/F [5, 23]: 461 L/h
- Cmax [5, 23]: 3.71 ng/mL
- MRT [5, 23]: 25.4 h
- T½ term [5, 23]: 17.99 h
- tlast [5, 23]: 68.01 h
- tmax [5, 23]: 3.95 h
- λz [5, 23]: 0.0407 h⁻¹
- AUC0-24 [5, 24]: 53.8 ng·h/mL
- AUClast [5, 24]: 82.7 ng·h/mL
- AUC∞ [5, 24]: 89.6 ng·h/mL
- AUMC∞ [5, 24]: 2177 h · h · ng/mL
- CL/F [5, 24]: 447 L/h
- Cmax [5, 24]: 3.74 ng/mL
- MRT [5, 24]: 24.8 h
- T½ term [5, 24]: 16.61 h
- tlast [5, 24]: 72.00 h
- tmax [5, 24]: 4.00 h
- λz [5, 24]: 0.0417 h⁻¹

— US20160022683A1, “COMBINATIONS OF BRUTON'S TYROSINE KINASE INHIBITORS AND CYP3A4 INHIBITORS” (PHARMACYCLICS LLC, priority 2013, published 2016)
